According to patent US10704076B2, “Multi-tiered high through-put screen for compounds effective against bacterial biofilm and compounds effective for inhibiting and eradicating bacterial biofilm” (University of Cincinnati, priority 2013, dated 2020):

Tested on: differentiated THP-1 cells
Assay: LDH cytotoxicity assay
Type: cell-based
Details: 48 hr
Protocol: Following identification as an HTS broad spectrum hit and confirmation by CLSM, a cytotoxicity assay was performed on compounds 3, 7, 8 and 11. The lactate dehydrogenase assay (LDH) is commonly used as an enzymatic marker to quantitatively correlate cell death via leakage of the enzyme from dead or dying cells. An LDH assay was used to investigate the toxicity of compounds on A549 and differentiated THP-1 cells. […] Finally, 25 μl of Stop Solution was added, incubated at room temperature for 5 min, and the fluorescence signal was detected using a Synergy 2 Multi-Mode Microplate Reader (Ex. […]/Em. 590). The unit of measurement is the Relative Fluorescence Unit (RFU). The cytotoxicity of the compounds was calculated based on the percentage of compound RFUs measured (Experimental) in comparison to the RFU of the DMSO treated cells as those that were completely lysed (Maximum LDH Release). […]
The cytotoxicity of the broad agent hit compounds was examined in differentiated human THP-1, a human acute monocytic leukemia cell line and A549, a human lung adenocarcinoma epithelial cell line. […] Compounds were assessed at varying concentrations of 0, 260, 290, 300, and 570 μM for compounds 7, 11, 8, and 3, respectively, for the cytotoxicity assays. […]

For `Cn1sc(Cl)c(C#N)c1=O` [Compound 3, 5-chloro-2-methyl-3-oxo-1,2-thiazole-4-carbonitrile], the “cytotoxicity (LDH)” value (57 μM) was 60% and the “cytotoxicity (LDH), change against 57 μM” value (570 μM) was “decreased”.
